From patent US20050171195A1, “P2X7 antagonists for treating neuropathic pain” (priority 2003, published 2005)

Row | Compound | melting point [°C]
1 | Cc1ccccc1NC(=NC#N)NC(NC(=O)Cc1ccc(Cl)cc1)C(C)(C)C (stereo not shown) [Example 17, 2-(4-chlorophenyl)-N-[1-({(cyanoimino)[(2-methylphenyl)amino]methyl}amino)-2,2-dimethylpropyl]acetamide] | 181 to 182
2 | COc1ccc(CC(=O)NC(NC(=NC#N)Nc2cc(C)ccc2C)C(C)(C)C)cc1OC (stereo not shown) [Example 21, N-[1-({(cyanoimino)[(2,5-dimethylphenyl)amino]methyl}amino)-2,2-dimethylpropyl]-2-(3,4-dimethoxyphenyl)acetamide] | 93 to 94
3 | COc1ccc(CCCC(=O)NC(NC(=NC#N)Nc2cccnc2C)C(C)(C)C)cc1 (stereo not shown) [Example 3, N-[1-({(cyanoimino)[(2-methyl-3-pyridinyl)amino]methyl}amino)-2,2-dimethylpropyl]-4-(4-methoxyphenyl)butanamide] | 65 to 68
4 | Cc1ccccc1NC(=NC#N)NC(NC(=O)CCCc1ccccc1)C(C)(C)C (stereo not shown) [Example 18, N-[1-({(cyanoimino)[(2-methylphenyl)amino]methyl}amino)-2,2-dimethylpropyl]-4-phenylbutanamide] | 153 to 154
5 | CC(C)(C)C(NC(=O)Cc1ccc(Cl)cc1)NC(=NC#N)Nc1cccnc1Cl (stereo not shown) [Example 26, 2-(4-chlorophenyl)-N-(1-{[[(2-chloro-3-pyridinyl)amino](cyanoimino)methyl]amino}-2,2-dimethylpropyl)acetamide] | 174 to 175
6 | COc1ccc(CC(=O)NC(NC(=NC#N)Nc2c(F)cc(F)cc2F)C(C)(C)C)cc1OC (stereo not shown) [Example 22, N-[1-({(cyanoimino)[(2,4,6-trifluorophenyl)amino]methyl}amino)-2,2-dimethylpropyl]-2-(3,4-dimethoxyphenyl)acetamide] | 170 to 171
7 | CSc1ccc(CC(=O)NC(NC(=NC#N)Nc2cccc3ncccc23)C(C)(C)C)cc1 (stereo not shown) [Example 31, N-(1-{[(cyanoimino)(5-quinolinylamino)methyl]amino}-2,2-dimethylpropyl)-2-[4-(methylthio)phenyl]acetamide] | 188 to 189
8 | COc1ccc(CC(=O)NC(NC(=NC#N)Nc2cc(F)ccc2F)C(C)(C)C)cc1OC (stereo not shown) [Example 19, N-[1-({(cyanoimino)[(2,5-difluorophenyl)amino]methyl}amino)-2,2-dimethylpropyl]-2-(3,4-dimethoxyphenyl)acetamide] | 190 to 191
9 | COc1ccc(CC(=O)NC(NC(=NC#N)Nc2ccccc2Cl)C(C)(C)C)cc1OC (stereo not shown) [Example 20, N-(1-{[[(2-chlorophenyl)amino](cyanoimino)methyl]amino}-2,2-dimethylpropyl)-2-(3,4-dimethoxyphenyl)acetamide] | 135 to 136
10 | COc1ccc(CC(=O)NC(NC(=NC#N)Nc2cccnc2OC)C(C)(C)C)cc1OC (stereo not shown) [Example 24, N-[1-({(cyanoimino)[(2-methoxy-3-pyridinyl)amino]methyl}amino)-2,2-dimethylpropyl]-2-(3,4-dimethoxyphenyl)acetamide] | 146 to 147
11 | Cc1ncccc1NC(=NC#N)NC(NC(=O)Cc1ccc(F)c(F)c1)C(C)(C)C (stereo not shown) [Example 1, N-[1-({(cyanoimino)[(2-methyl-3-pyridinyl)amino]methyl}amino)-2,2-dimethylpropyl]-2-(3,4-difluorophenyl)acetamide] | 58 to 60
12 | COc1ccc(CC(=O)NC(NC(=NC#N)Nc2cc(Cl)ccc2F)C(C)(C)C)cc1OC (stereo not shown) [Example 23, N-(1-{[[(5-chloro-2-fluorophenyl)amino](cyanoimino)methyl]amino}-2,2-dimethylpropyl)-2-(3,4-dimethoxyphenyl)acetamide] | 187 to 188
13 | Cc1ccccc1NC(=NC#N)NC(NC(=O)Cc1ccc2c(c1)OCO2)C(C)(C)C (stereo not shown) [Example 15, 2-(1,3-benzodioxol-5-yl)-N-[1-({(cyanoimino)[(2-methylphenyl)amino]methyl}amino)-2,2-dimethylpropyl]acetamide] | 152 to 153
14 | COc1cc(OC)cc(C(=O)NC(NC(=NC#N)Nc2cccnc2OC)C(C)(Cl)Cl)c1 (stereo not shown) [Example 50, N-[2,2-dichloro-1-({(cyanoimino)[(2-methoxy-3-pyridinyl)amino]methyl}amino)propyl]-3,5-dimethoxybenzamide] | 198 to 199
15 | Cc1ccc(CC(=O)NC(NC(=NC#N)Nc2cccnc2C)C(C)(C)C)cc1F (stereo not shown) [Example 4, N-[1-({(cyanoimino)[(2-methyl-3-pyridinyl)amino]methyl}amino)-2,2-dimethylpropyl]-2-(3-fluoro-4-methylphenyl)acetamide] | 75 to 77
16 | CC(C)(C)C(NC(=O)Cc1ccc2ncccc2c1)NC(=NC#N)Nc1cccc2ncccc12 (stereo not shown) [Example 40, N-(1-{[(cyanoimino)(5-quinolinylamino)methyl]amino}-2,2-dimethylpropyl)-2-(6-quinolinyl)acetamide] | 150 to 151
17 | Cc1ncccc1NC(=NC#N)NC(NC(=O)CCCc1cccs1)C(C)(C)C (stereo not shown) [Example 7, N-[1-({(cyanoimino)[(2-methyl-3-pyridinyl)amino]methyl}amino)-2,2-dimethylpropyl]-4-(2-thienyl)butanamide] | 66 to 68

Row | Compound | melting point [°C]
18 | CC(C)(C)C(NC(=O)Cc1ccc2c(c1)OCCO2)NC(=NC#N)Nc1cccc2ncccc12 (stereo not shown) [Example 38, N-(1-{[(cyanoimino)(5-quinolinylamino)methyl]amino}-2,2-dimethylpropyl)-2-(2,3-dihydro-1,4-benzodioxin-6-yl)acetamide] | 191 to 192
19 | COc1ccc(NC(=NC#N)NC(NC(=O)c2ccc(Cl)cc2)C(C)(Cl)Cl)c(OC)n1 (stereo not shown) [Example 51, 4-chloro-N-[2,2-dichloro-1-({(cyanoimino)[(2,6-dimethoxy-3-pyridinyl)amino]methyl}amino)propyl]benzamide] | 162 to 163
20 | CC(C)(C)C(NC(=O)Cc1ccc(C#N)cc1)NC(=NC#N)Nc1cccc2ncccc12 (stereo not shown) [Example 41, N-(1-{[(cyanoimino)(5-quinolinylamino)methyl]amino}-2,2-dimethylpropyl)-2-(4-cyanophenyl)acetamide] | 194.5 to 195.5
21 | CC(C)(C)C(NC(=O)Cc1ccc2ccccc2c1)NC(=NC#N)Nc1cccc2ncccc12 (stereo not shown) [Example 36, N-(1-{[(cyanoimino)(5-quinolinylamino)methyl]amino}-2,2-dimethylpropyl)-2-(2-naphthyl)acetamide] | 200 to 201
22 | COc1ccc(NC(=NC#N)NC(NC(=O)Cc2ccc(OC)c(OC)c2)C(C)(C)C)c(OC)n1 (stereo not shown) [Example 27, N-[1-({(cyanoimino)[(2,6-dimethoxy-3-pyridinyl)amino]methyl}amino)-2,2-dimethylpropyl]-2-(3,4-dimethoxyphenyl)acetamide] | 162 to 163
23 | CSc1ccc(CC(=O)NC(NC(=NC#N)Nc2cccnc2C)C(C)(C)C)cc1 (stereo not shown) [Example 8, N-[1-({(cyanoimino)[(2-methyl-3-pyridinyl)amino]methyl}amino)-2,2-dimethylpropyl]-2-[4-(methylthio)phenyl]acetamide] | 172 to 173
24 | CC(C)(C)C(NC(=O)CCCc1cccnc1)NC(=NC#N)Nc1cccc2ncccc12 (stereo not shown) [Example 42, N-(1-{[(cyanoimino)(5-quinolinylamino)methyl]amino}-2,2-dimethylpropyl)-4-(3-pyridinyl)butanamide] | 181 to 182
25 | Cc1ccc2c(NC(=NC#N)NC(NC(=O)Cc3ccc(Cl)cc3)C(C)(C)C)cccc2n1 (stereo not shown) [Example 44, 2-(4-chlorophenyl)-N-[1-({(cyanoimino)[(2-methyl-5-quinolinyl)amino]methyl}amino)-2,2-dimethylpropyl]acetamide] | 198 to 199
26 | CSc1ccc(CC(=O)NC(NC(=NC#N)Nc2ccccc2C)C(C)(C)C)cc1 (stereo not shown) [Example 16, N-[1-({(cyanoimino)[(2-methylphenyl)amino]methyl}amino)-2,2-dimethylpropyl]-2-[4-(methylthio)phenyl]acetamide] | 151 to 152
27 | Cc1ncccc1NC(=NC#N)NC(NC(=O)Cc1ccc(Cl)cc1)C(C)(C)C (stereo not shown) [Example 2, 2-(4-chlorophenyl)-N-[1-({(cyanoimino)[(2-methyl-3-pyridinyl)amino]methyl}amino)-2,2-dimethylpropyl]acetamide] | 180 to 181
28 | CC(C)(C)C(NC(=O)Cc1ccc(Cl)cc1)NC(=NC#N)Nc1cccc2ncccc12 (stereo not shown) [Example 32, 2-(4-chlorophenyl)-N-(1-{[(cyanoimino)(5-quinolinylamino)methyl]amino}-2,2-dimethylpropyl)acetamide] | 195 to 196
29 | COc1ccc(CC(=O)NC(NC(=NC#N)Nc2cccnc2OC)C(C)(Cl)Cl)cc1OC (stereo not shown) [Example 54, N-[2,2-dichloro-1-({(cyanoimino)[(2-methoxy-3-pyridinyl)amino]methyl}amino)propyl]-2-(3,4-dimethoxyphenyl)acetamide] | 188 to 190
30 | CCSc1ccc(CC(=O)NC(NC(=NC#N)Nc2cccc3ncccc23)C(C)(C)C)cc1 (stereo not shown) [Example 37, N-(1-{[(cyanoimino)(5-quinolinylamino)methyl]amino}-2,2-dimethylpropyl)-2-[4-(ethylthio)phenyl]acetamide] | 189 to 190
31 | Cc1ncccc1NC(=NC#N)NC(NC(=O)CCCCc1ccccc1)C(C)(C)C (stereo not shown) [Example 5, N-[1-({(cyanoimino)[(2-methyl-3-pyridinyl)amino]methyl}amino)-2,2-dimethylpropyl]-5-phenylpentanamide] | 133 to 134
32 | COc1ccc(CC(=O)NC(NC(=NC#N)Nc2ccccc2C)C(C)(C)C)cc1 (stereo not shown) [Example 14, N-[1-({(cyanoimino)[(2-methylphenyl)amino]methyl}amino)-2,2-dimethylpropyl]-2-(4-methoxyphenyl)acetamide] | 174
33 | CC(C)(C)C(NC(=O)Cc1ccc(Cl)cc1)NC(=NC#N)Nc1cccc2cnsc12 (stereo not shown) [Example 45, N-(1-{[(1,2-benzisothiazol-7-ylamino)(cyanoimino)methyl]amino}-2,2-dimethylpropyl)-2-(4-chlorophenyl)acetamide] | 135 to 137
34 | CN1CCCc2c(NC(=NC#N)NC(NC(=O)Cc3ccc(Cl)cc3)C(C)(C)C)cccc21 (stereo not shown) [Example 43, 2-(4-chlorophenyl)-N-[1-({(cyanoimino)[(1-methyl-1,2,3,4-tetrahydro-5-quinolinyl)amino]methyl}amino)-2,2-dimethylpropyl]acetamide] | 114 to 117
